We go through 1 molecule from ChEMBL document CHEMBL1139563, “Synthesis of all-trans arachidonic acid and its effect on rabbit platelet aggregation” (Bioorg Med Chem Lett, 2005).

SMILES strings stand for the structures.

Common to all, as to type: functional
Test [1] is filed under the species Oryctolagus cuniculus. In words: Inhibitory activity against PAF (4e-10 M) induced aggregation of rabbit platelet at 3E-5 M concentration.
The species entered for test [2] is Oryctolagus cuniculus. The experiment in a line: Inhibitory activity against PAF (4e-10 M) induced aggregation of rabbit platelet at 1.5E-5 M concentration.
Test [3] is filed under the species Oryctolagus cuniculus. In words: Inhibitory concentration against PAF (8E-10M) induced aggregation of rabbit platelet at 2.1E-4 M concentration.
Test [4] is filed under the species Oryctolagus cuniculus. The experiment in a line: Inhibitory activity against PAF (4e-10 M) induced aggregation of rabbit platelet at 1.5E-6 M concentration.
Test [5] is filed under the species Oryctolagus cuniculus. The experiment in a line: Inhibitory activity against PAF (4e-10 M) induced aggregation of rabbit platelet at 2.1E-4 M concentration.
Test [6] is filed under the species Oryctolagus cuniculus. The experiment in a line: Inhibitory activity against PAF (4e-10 M) induced aggregation of rabbit platelet at 7.5E-5 M concentration.
For test [7], the species on record is Oryctolagus cuniculus. In words: Inhibitory activity against PAF (8E-10M) induced aggregation of rabbit platelet at 2.1E-4 M concentration.

Regarding `CCCCC/C=C\C/C=C\C/C=C\C/C=C\CCCC(=O)O` [ARACHIDONIC ACID], the Inhibition is 24% in the test filed under Oryctolagus cuniculus [1]; 6% in the test listed under Oryctolagus cuniculus [2]; 0% in the test listed under Oryctolagus cuniculus [4]; 100% in the test filed under Oryctolagus cuniculus [5]; 61% in the test filed under Oryctolagus cuniculus [6]; 100% in the test listed under Oryctolagus cuniculus [7]. The IC50 in the test filed under Oryctolagus cuniculus [3] is ~60 µM.
